In article PMC3057712 (Molecular Biology of the Cell, 2011):

Target: T1, Sfh1 (Saccharomyces cerevisiae, UniProt P33324)
T1 sequence (P33324 1-310): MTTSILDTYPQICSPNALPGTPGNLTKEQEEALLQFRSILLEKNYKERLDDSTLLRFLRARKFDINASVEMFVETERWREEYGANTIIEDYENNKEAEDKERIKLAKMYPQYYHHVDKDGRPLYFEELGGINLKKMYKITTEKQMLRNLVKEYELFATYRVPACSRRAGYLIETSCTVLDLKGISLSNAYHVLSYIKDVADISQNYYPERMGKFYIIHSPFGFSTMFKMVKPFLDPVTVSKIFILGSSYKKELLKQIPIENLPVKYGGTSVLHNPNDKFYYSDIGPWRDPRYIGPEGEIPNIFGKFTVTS
Assay: CW X-band EPR, loading from multilamellar liposomes
Assay type: binding
Details: 130 μM protein, twofold molar excess of lipid, pH 6.8, 23°C; labelled compound

- % of total protein loaded: ~ 20%
Substance: 1-acyl-2-(n-(4,4-dimethyloxazolidine-N-oxyl)stearoyl)-sn-glycero-3-phosphocholines [16-doxyl-PtdCho]
